In ChEMBL document CHEMBL5537181 (J Med Chem, 2024) one finds IC50 data, which are given here for 1 compound.

This assay has as its target Neuronal acetylcholine receptor; alpha9/alpha10 (Homo sapiens, UniProt Q9GZZ6+Q9UGM1). Description: Antagonist activity at human wild type alpha9alpha10 nAChR expressed in acetylcholine-induced Xenopus laevis oocytes assessed as inhibition of acetylcholine-induced current at 1:3 ratio of protein by two electrode voltage-clamp assay. The class given is cell-based, Oocyte.

Chain of Neuronal acetylcholine receptor; alpha9/alpha10 (Q9UGM1 whole entry): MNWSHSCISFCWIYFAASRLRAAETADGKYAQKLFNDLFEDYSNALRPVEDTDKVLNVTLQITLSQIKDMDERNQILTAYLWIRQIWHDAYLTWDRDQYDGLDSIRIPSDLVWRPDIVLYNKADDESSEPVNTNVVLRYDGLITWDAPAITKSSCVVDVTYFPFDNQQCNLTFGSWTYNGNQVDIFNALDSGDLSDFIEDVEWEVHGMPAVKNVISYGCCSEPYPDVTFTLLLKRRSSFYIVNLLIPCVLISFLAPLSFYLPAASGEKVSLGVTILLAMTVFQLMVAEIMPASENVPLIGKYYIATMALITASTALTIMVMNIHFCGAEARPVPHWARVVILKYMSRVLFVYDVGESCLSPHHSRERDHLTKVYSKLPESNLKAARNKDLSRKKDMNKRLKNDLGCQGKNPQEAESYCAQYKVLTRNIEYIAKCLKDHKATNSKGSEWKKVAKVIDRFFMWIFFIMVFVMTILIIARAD
Chain of Neuronal acetylcholine receptor; alpha9/alpha10 (Q9GZZ6 whole entry): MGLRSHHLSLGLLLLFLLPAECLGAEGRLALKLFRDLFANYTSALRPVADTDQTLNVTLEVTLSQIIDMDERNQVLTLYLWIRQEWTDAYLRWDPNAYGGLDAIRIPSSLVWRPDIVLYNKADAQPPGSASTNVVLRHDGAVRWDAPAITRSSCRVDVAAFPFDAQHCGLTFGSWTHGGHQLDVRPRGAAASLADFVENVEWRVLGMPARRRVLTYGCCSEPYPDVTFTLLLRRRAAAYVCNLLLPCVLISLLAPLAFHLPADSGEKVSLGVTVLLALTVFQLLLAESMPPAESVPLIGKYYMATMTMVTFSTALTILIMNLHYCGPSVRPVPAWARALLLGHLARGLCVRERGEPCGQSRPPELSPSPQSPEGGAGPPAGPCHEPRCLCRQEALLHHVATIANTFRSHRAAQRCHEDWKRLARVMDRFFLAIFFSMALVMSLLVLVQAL

Take `CC[C@H](C)[C@H](NC(=O)[C@H](CCCNC(=N)N)NC(=O)[C@H](CCCNC(=N)N)NC(=O)[C@H](Cc1ccc(O)cc1)NC(=O)[C@H](CCCNC(=N)N)NC(=O)[C@H](CCCNC(=N)N)NC(=O)[C@H](CCCNC(=N)N)NC(=O)[C@H](CCCNC(=N)N)NC(=O)[C@H](CC(=O)O)NC(=O)[C@H](Cc1ccc(O)cc1)NC(=O)[C@@H]1CCCN1C(=O)[C@H](CO)NC(=O)[C@H](CCCNC(=N)N)NC(=O)[C@H](Cc1ccc(O)cc1)NC(=O)[C@H](CCCNC(=N)N)NC(=O)CN)C(=O)N[C@H](C(=O)N[C@@H](CC(=O)O)C(N)=O)[C@@H](C)O`: the IC50 is 5 nM.

By IC50 is commonly meant the point on the concentration scale where inhibition reaches its midpoint.
